{"source": "patent US11612606B2", "about": "“8-aminoisoquinoline compounds and uses thereof” (priority 2018, dated 2023)", "note": "pKi: −log10 of the molar value. Counter-ions that a name gives are not always drawn.", "data": [{"biological_target": "HPK full length, T165E S171E (Homo sapiens (Human), UniProt Q92918, S171E/T165E)", "sequence (Q92918 whole entry T165E/S171E, looked up)": "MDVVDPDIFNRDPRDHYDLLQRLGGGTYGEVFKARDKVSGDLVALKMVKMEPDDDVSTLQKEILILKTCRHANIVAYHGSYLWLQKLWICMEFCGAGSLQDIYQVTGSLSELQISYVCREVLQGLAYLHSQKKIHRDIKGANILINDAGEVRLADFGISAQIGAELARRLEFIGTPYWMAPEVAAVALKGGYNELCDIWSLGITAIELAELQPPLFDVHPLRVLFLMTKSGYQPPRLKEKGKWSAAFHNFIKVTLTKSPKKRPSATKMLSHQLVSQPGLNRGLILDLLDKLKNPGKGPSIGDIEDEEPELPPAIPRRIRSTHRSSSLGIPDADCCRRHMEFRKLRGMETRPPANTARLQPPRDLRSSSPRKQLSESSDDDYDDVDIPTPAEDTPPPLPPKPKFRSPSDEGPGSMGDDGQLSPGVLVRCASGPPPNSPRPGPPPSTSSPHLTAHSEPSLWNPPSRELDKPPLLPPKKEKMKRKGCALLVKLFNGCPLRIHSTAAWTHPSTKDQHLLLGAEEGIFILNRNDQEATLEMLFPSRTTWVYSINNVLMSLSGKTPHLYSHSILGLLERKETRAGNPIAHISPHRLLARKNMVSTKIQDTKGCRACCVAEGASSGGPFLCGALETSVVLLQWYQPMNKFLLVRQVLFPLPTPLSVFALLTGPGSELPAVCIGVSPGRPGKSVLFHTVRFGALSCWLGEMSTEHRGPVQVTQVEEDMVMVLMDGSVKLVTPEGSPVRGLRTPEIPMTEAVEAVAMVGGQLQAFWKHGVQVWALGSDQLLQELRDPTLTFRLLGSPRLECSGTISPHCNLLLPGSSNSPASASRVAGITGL", "assay": "HPK1-FL HTRF enzymatic assay (\"HTRF\")", "format": "biochemical", "details": "ATP 1 mM, read-out: HPK1 Ki", "method_in_brief": "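HTRF detection of phosphorylated biotin-SLP-76 used Eu-anti-pSLP76 antibody and SA-XL665, read after 60 min. The kinase reaction ran 60 min at […], following a 30-min compound preincubation with the full-length enzyme.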", "values": [{"smiles": "Cc1c(-c2cc3cc(NC(=O)OC4CN(S(C)(=O)=O)C4)ncc3c(N)c2F)cnc2c1NCCC2", "note": "[Compound 493, 1-(Methylsulfonyl)azetidin-3-yl (8-amino-7-fluoro-6-(4-methyl-5,6,7,8-tetrahydro-1,5-naphthyridin-3-yl)isoquinolin-3-yl)carbamate]", "pKi": 10.19}, {"smiles": "Cc1c(-c2cc3cc(NC(=O)OC4CC5(C4)CN(CC(F)F)C5)ncc3c(N)c2F)cnc2c1NCCO2", "note": "[Compound 494, 2-(2,2-Difluoroethyl)-2-azaspiro[3.3]heptan-6-yl (8-amino-7-fluoro-6-(8-methyl-2,3-dihydro-1H-pyrido[2,3-b][1,4]oxazin-7-yl)isoquinolin-3-yl)carbamate]", "pKi": "> 10.89"}, {"smiles": "Cc1c(-c2cc3cc(NC(=O)O[C@H]4[C@@H]5CN(C(C)C)C[C@@H]54)ncc3c(N)c2F)cnc2c1NCCO2", "note": "[Compound 499a, (1R,5S,6s)-3-Isopropyl-3-azabicyclo[3.1.0]hexan-6-yl (8-amino-7-fluoro-6-(8-methyl-2,3-dihydro-1H-pyrido[2,3-b][1,4]oxazin-7-yl)isoquinolin-3-yl)carbamate]", "pKi": "> 10.89"}, {"smiles": "Cc1c(-c2cc3cc(NC(=O)O[C@H]4[C@@H]5CN(C6COC6)C[C@@H]54)ncc3c(N)c2F)cnc2c1NCCO2", "note": "[Compound 502a, (1R,5S,6s)-3-(Oxetan-3-yl)-3-azabicyclo[3.1.0]hexan-6-yl (8-amino-7-fluoro-6-(8-methyl-2,3-dihydro-1H-pyrido[2,3-b][1,4]oxazin-7-yl)isoquinolin-3-yl)carbamate]", "pKi": "> 10.89"}, {"smiles": "CC[C@]1(O)C[C@H](OC(=O)Nc2cc3cc(-c4cnc5c(c4C)NCCO5)c(F)c(N)c3cn2)C1", "note": "[Compound 512a, (1s,3r)-3-Ethyl-3-hydroxycyclobutyl (8-amino-7-fluoro-6-(8-methyl-2,3-dihydro-1H-pyrido[2,3-b][1,4]oxazin-7-yl)isoquinolin-3-yl)carbamate]", "pKi": 10.82}, {"smiles": "Cc1c(-c2cc3cc(NC(=O)O[C@H]4C[C@@H](N5CC(F)(F)C5)C4)ncc3c(N)c2F)cnc2c1NCCO2", "note": "[Compound 513a, (1s, 3s)-3-(3,3-Difluoroazetidin-1-yl)cyclobutyl (8-amino-7-fluoro-6-(8-methyl-2,3-dihydro-1H-pyrido[2,3-b][1,4]oxazin-7-yl)isoquinolin-3-yl)carbamate]", "pKi": 10.66}, {"smiles": "Cc1c(-c2cc3cc(NC(=O)O[C@H]4C[C@H](n5ccnc5)C4)ncc3c(N)c2F)cnc2c1NCCO2", "note": "[Compound 514a, (1r,3r)-3-(1H-Imidazol-1-yl)cyclobutyl (8-amino-7-fluoro-6-(8-methyl-2,3-dihydro-1H-pyrido[2,3-b][1,4]oxazin-7-yl)isoquinolin-3-yl)carbamate hydrochloride]", "pKi": "> 10.89"}, {"smiles": "Cc1c(-c2cc3cc(NC(=O)O[C@H]4C[C@@H](C(=O)N5CCC5)C4)ncc3c(N)c2F)cnc2c1NCCO2", "note": "[Compound 517a, (1s,3s)-3-(Azetidine-1-carbonyl)cyclobutyl (8-amino-7-fluoro-6-(8-methyl-2,3-dihydro-1H-pyrido[2,3-b][1,4]oxazin-7-yl)isoquinolin-3-yl)carbamate]", "pKi": "> 10.89"}, {"smiles": "Cc1c(-c2cc3cc(NC(=O)O[C@H]4C[C@@H](C(=O)N(C)C)C4)ncc3c(N)c2F)cnc2c1NCCO2", "note": "[Compound 519a, (1s,3s)-3-(Dimethylcarbamoyl)cyclobutyl (8-amino-7-fluoro-6-(8-methyl-2,3-dihydro-1H-pyrido[2,3-b][1,4]oxazin-7-yl)isoquinolin-3-yl)carbamate]", "pKi": "> 10.89"}, {"smiles": "CNC(=O)[C@H]1C[C@@H](OC(=O)Nc2cc3cc(-c4cnc5c(c4C)NCCO5)c(F)c(N)c3cn2)C1", "note": "[Compound 520a, (1s,3s)-3-(Methylcarbamoyl)cyclobutyl (8-amino-7-fluoro-6-(8-methyl-2,3-dihydro-1H-pyrido[2,3-b][1,4]oxazin-7-yl)isoquinolin-3-yl)carbamate hydrochloride]", "pKi": "> 10.89"}, {"smiles": "Cc1c(-c2cc3cc(NC(=O)OC4CN(CCF)C4)ncc3c(N)c2F)cnc2c1NCCO2", "note": "[Compound 521, 1-(2-Fluoroethyl)azetidin-3-yl (8-amino-7-fluoro-6-(8-methyl-2,3-dihydro-1H-pyrido[2,3-b][1,4]oxazin-7-yl)isoquinolin-3-yl)carbamate]", "pKi": 9.96}, {"smiles": "Cc1c(-c2cc3cc(NC(=O)O[C@H]4[C@@H]5CN(S(C)(=O)=O)C[C@@H]54)ncc3c(N)c2F)cnc2c1NCCO2", "note": "[Compound 522a, (1R,5S,6s)-3-(Methylsulfonyl)-3-azabicyclo[3.1.0]hexan-6-yl (8-amino-7-fluoro-6-(8-methyl-2,3-dihydro-1H-pyrido[2,3-b][1,4]oxazin-7-yl)isoquinolin-3-yl)carbamate]", "pKi": "> 10.89"}, {"smiles": "Cc1c(-c2cc3cc(NC(=O)OC4CN(S(=O)(=O)C5CC5)C4)ncc3c(N)c2F)cnc2c1NCCO2", "note": "[Compound 524, (1-Cyclopropylsulfonylazetidin-3-yl)-N-[8-amino-7-fluoro-6-(8-methyl-2,3-dihydro-1H-pyrido[2,3-b][1,4]oxazin-7-yl)-3-isoquinolyl]-carbamate hydrochloride]", "pKi": 10.70}, {"smiles": "Cc1c(-c2cc3cc(NC(=O)O[C@H]4C[C@@H](N5CC(F)C5)C4)ncc3c(N)c2F)cnc2c1NCCO2", "note": "[Compound 525a, (1s,3s)-3-(3-Fluoroazetidin-1-yl)cyclobutyl (8-amino-7-fluoro-6-(8-methyl-2,3-dihydro-1H-pyrido[2,3-b][1,4]oxazin-7-yl)isoquinolin-3-yl)carbamate]", "pKi": "> 10.89"}, {"smiles": "Cc1c(-c2cc3cc(NC(=O)O[C@@H]4C[C@](C)(O)[C@@H]4C)ncc3c(N)c2F)cnc2c1NCCO2", "note": "[Compound 526a, (1R,2R,3S)-3-Hydroxy-2,3-dimethylcyclobutyl (8-amino-7-fluoro-6-(8-methyl-2,3-dihydro-1H-pyrido[2,3-b][1,4]oxazin-7-yl)isoquinolin-3-yl)carbamate]", "pKi": 10.82}, {"smiles": "Cc1c(-c2cc3cc(NC(=O)O[C@@H]4C[C@@](C)(O)[C@H]4C)ncc3c(N)c2F)cnc2c1NCCO2", "note": "[Compound 526d, (1R,2S,3R)-3-Hydroxy-2,3-dimethylcyclobutyl (8-amino-7-fluoro-6-(8-methyl-2,3-dihydro-1H-pyrido[2,3-b][1,4]oxazin-7-yl)isoquinolin-3-yl)carbamate]", "pKi": 10.74}, {"smiles": "CNc1cncc(-c2cc3cc(NC(=O)O[C@H]4C[C@](C)(O)C4)ncc3c(N)c2F)c1C", "note": "[Compound 527a, (1r,3r)-3-Hydroxy-3-methylcyclobutyl (8-amino-7-fluoro-6-(4-methyl-5-(methylamino)pyridin-3-yl)isoquinolin-3-yl)carbamate]", "pKi": 9.27}, {"smiles": "CNc1cncc(-c2cc3cc(NC(=O)O[C@H]4C[C@@](C)(O)C4)ncc3c(N)c2F)c1C", "note": "[Compound 527b, (1s,3s)-3-Hydroxy-3-methylcyclobutyl (8-amino-7-fluoro-6-(4-methyl-5-(methylamino)pyridin-3-yl)isoquinolin-3-yl)carbamate]", "pKi": 9.67}, {"smiles": "CO[C@]1(C)C[C@H](OC(=O)Nc2cc3cc(-c4cnc5c(c4C)NCCO5)c(F)c(N)c3cn2)C1", "note": "[Compound 528a, (1s,3s)-3-Methoxy-3-methyl cyclobutyl (8-amino-7-fluoro-6-(8-methyl-2,3-dihydro-1H-pyrido[2,3-b][1,4]oxazin-7-yl)isoquinolin-3-yl)carbamate]", "pKi": "> 10.89"}, {"smiles": "CC(=O)O[C@]1(C)C[C@H](OC(=O)Nc2cc3cc(-c4cnc5c(c4C)NCCO5)c(F)c(N)c3cn2)C1", "note": "[Compound 529b, (1s,3s)-3-(((8-Amino-7-fluoro-6-(8-methyl-2,3-dihydro-1H-pyrido[2,3-b][1,4]oxazin-7-yl)isoquinolin-3-yl)carbamoyl)oxy)-1-methylcyclobutyl acetate]", "pKi": 10.72}, {"smiles": "Cc1c(-c2cc3cc(NC(=O)OC4CC5(C4)CN(CC(F)F)C5)ncc3c(N)c2F)cnc2c1NCCC2", "note": "[Compound 532, 2-(2,2-Difluoroethyl)-2-azaspiro[3.3]heptan-6-yl (8-amino-7-fluoro-6-(4-methyl-5,6,7,8-tetrahydro-1,5-naphthyridin-3-yl)isoquinolin-3-yl)carbamate]", "pKi": 10.85}, {"smiles": "Cc1c(N)cncc1-c1cc2cc(NC(=O)O[C@H]3C[C@@H](C#N)C3)ncc2c(N)c1F", "note": "[Compound 534a, (1s,3s)-3-Cyanocyclobutyl (8-amino-6-(5-amino-4-methylpyridin-3-yl)-7-fluoroisoquinolin-3-yl)carbamate]", "pKi": 9.85}, {"smiles": "Cc1c(-c2cc3cc(NC(=O)O[C@@H]4CC[C@H]4C#N)ncc3c(N)c2F)cnc2c1NCCO2", "note": "[Compound 535b, (1R,2S)-2-Cyanocyclobutyl (8-amino-7-fluoro-6-(8-methyl-2,3-dihydro-1H-pyrido[2,3-b][1,4]oxazin-7-yl)isoquinolin-3-yl)carbamate]", "pKi": 10.54}, {"smiles": "Cc1c(-c2cc3cc(NC(=O)O[C@H]4C[C@@H](CC#N)C4)ncc3c(N)c2F)cnc2c1NCCO2", "note": "[Compound 536a, (1r,3s)-3-(Cyanomethyl)cyclobutyl (8-amino-7-fluoro-6-(8-methyl-2,3-dihydro-1H-pyrido[2,3-b][1,4]oxazin-7-yl)isoquinolin-3-yl)carbamate]", "pKi": "> 10.89"}, {"smiles": "Cc1c(-c2cc3cc(NC(=O)O[C@H]4C[C@@](C)(C#N)C4)ncc3c(N)c2F)cnc2c1NCCO2", "note": "[Compound 537a, (1s,3s)-3-Cyano-3-methylcyclobutyl (8-amino-7-fluoro-6-(8-methyl-2,3-dihydro-1H-pyrido[2,3-b][1,4]oxazin-7-yl)isoquinolin-3-yl)carbamate]", "pKi": 10.82}, {"smiles": "Cc1c(-c2cc3cc(NC(=O)O[C@H]4C[C@](C)(C#N)C4)ncc3c(N)c2F)cnc2c1NCCO2", "note": "[Compound 537b, (1r,3r)-3-Cyano-3-methylcyclobutyl (8-amino-7-fluoro-6-(8-methyl-2,3-dihydro-1H-pyrido[2,3-b][1,4]oxazin-7-yl)isoquinolin-3-yl)carbamate]", "pKi": "> 10.89"}, {"smiles": "CN[C@H]1C[C@H](OC(=O)Nc2cc3cc(-c4cnc5c(c4C)NCCO5)c(F)c(N)c3cn2)C1", "note": "[Compound 539a, (1r,3r)-3-(Methylamino)cyclobutyl (8-amino-7-fluoro-6-(8-methyl-2,3-dihydro-1H-pyrido[2,3-b][1,4]oxazin-7-yl)isoquinolin-3-yl)carbamate]", "pKi": "> 10.89"}]}]}
